The record followed here is ChEMBL document CHEMBL3352097, “Small molecule inhibitors targeting activator protein 1 (AP-1)” (J Med Chem, 2014).

A value given as a limit tells only on which side of the number the result lay.

In assay [1] the target is T1, Retinoic acid receptor alpha (Homo sapiens, UniProt P10276).
T1 sequence (P10276 whole entry): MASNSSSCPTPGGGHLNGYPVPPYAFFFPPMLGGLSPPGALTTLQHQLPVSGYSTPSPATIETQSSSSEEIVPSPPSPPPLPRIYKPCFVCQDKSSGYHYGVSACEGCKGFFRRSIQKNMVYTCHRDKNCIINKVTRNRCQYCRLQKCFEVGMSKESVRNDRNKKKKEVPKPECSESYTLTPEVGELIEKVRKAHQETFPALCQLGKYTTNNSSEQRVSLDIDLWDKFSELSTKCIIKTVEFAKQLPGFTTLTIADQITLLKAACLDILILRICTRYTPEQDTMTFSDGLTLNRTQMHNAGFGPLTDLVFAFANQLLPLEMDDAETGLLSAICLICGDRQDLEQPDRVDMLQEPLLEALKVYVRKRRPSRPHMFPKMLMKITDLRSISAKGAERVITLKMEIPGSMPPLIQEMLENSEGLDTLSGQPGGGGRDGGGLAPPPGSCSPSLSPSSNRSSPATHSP
As to the kind of experiment: Activity at RARalpha (unknown origin).

For assay [2], the target named is T2, Retinoic acid receptor RXR-alpha (Homo sapiens, UniProt P19793).
T2 sequence (P19793 whole entry): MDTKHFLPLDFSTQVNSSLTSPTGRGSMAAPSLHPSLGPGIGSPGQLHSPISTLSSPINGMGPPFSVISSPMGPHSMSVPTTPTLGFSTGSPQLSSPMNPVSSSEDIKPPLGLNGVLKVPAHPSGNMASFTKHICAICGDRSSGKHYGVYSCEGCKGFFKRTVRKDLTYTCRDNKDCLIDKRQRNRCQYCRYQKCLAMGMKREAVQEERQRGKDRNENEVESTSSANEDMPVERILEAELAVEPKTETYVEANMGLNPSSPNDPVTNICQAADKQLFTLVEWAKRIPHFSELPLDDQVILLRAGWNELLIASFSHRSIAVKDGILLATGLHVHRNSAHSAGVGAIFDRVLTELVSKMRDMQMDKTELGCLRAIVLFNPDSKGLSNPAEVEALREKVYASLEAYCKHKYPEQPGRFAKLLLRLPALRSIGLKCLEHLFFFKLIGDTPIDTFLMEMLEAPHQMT
As to the kind of experiment: Activity at RXRalpha (unknown origin).

Assay [3] has as its target T3, Retinoic acid receptor beta (Homo sapiens, UniProt P10826).
T3 sequence (P10826 whole entry): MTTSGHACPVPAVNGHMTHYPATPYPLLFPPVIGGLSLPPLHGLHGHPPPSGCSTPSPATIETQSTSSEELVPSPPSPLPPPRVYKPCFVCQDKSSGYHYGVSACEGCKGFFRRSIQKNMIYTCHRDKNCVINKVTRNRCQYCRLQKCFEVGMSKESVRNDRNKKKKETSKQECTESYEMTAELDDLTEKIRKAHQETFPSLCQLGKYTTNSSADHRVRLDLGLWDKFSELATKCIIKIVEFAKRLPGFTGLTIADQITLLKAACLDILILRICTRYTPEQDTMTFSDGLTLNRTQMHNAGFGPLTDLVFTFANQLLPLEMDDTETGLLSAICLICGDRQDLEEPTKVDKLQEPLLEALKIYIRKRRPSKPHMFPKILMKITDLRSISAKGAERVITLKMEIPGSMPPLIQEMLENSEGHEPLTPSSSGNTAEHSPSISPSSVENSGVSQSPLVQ
Kind of assay: Activity at RARbeta (unknown origin).

Assay [4] deals with T4, Retinoic acid receptor gamma (Homo sapiens, UniProt P13631).
T4 sequence (P13631 whole entry): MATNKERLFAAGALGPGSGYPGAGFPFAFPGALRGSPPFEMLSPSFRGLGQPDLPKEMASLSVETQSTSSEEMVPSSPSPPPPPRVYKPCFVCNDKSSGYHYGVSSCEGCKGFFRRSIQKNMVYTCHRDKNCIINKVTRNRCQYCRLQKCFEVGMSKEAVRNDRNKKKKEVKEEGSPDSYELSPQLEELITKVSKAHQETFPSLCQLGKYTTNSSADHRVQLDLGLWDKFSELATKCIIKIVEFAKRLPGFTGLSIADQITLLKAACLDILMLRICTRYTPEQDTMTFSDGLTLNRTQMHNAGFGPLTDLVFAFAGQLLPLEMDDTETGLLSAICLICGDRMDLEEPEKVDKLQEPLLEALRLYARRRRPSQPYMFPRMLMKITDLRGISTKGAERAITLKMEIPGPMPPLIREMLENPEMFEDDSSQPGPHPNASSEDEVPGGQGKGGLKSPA
As to the kind of experiment: Activity at RARgamma (unknown origin).

Assay [5] deals with T5, Transcription factor Jun (Homo sapiens, UniProt P05412). Kind of assay: Inhibition of AP-1 (unknown origin) binding to AP-1 oligonucleotide by gel shift assay. (Mobility shift assays separate free from complexed probe on a gel.)
T5 sequence (P05412 whole entry): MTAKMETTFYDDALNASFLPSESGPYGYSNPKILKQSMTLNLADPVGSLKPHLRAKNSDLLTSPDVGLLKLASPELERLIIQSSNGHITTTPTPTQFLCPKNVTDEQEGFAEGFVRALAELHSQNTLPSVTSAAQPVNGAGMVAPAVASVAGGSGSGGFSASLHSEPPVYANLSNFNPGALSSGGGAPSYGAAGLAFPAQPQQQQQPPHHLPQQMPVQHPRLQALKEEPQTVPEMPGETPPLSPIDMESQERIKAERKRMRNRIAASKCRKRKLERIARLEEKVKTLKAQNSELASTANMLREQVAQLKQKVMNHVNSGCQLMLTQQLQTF
In assay [6] the target is Transcription factor Jun (Rattus norvegicus, UniProt P17325). Kind of assay: Inhibition of AP-1-mediated collagenase production in IL1alpha-stimulated Lewis rat synovial cells.
Chain of Transcription factor Jun (Rattus norvegicus, UniProt P17325) (P17325 whole entry): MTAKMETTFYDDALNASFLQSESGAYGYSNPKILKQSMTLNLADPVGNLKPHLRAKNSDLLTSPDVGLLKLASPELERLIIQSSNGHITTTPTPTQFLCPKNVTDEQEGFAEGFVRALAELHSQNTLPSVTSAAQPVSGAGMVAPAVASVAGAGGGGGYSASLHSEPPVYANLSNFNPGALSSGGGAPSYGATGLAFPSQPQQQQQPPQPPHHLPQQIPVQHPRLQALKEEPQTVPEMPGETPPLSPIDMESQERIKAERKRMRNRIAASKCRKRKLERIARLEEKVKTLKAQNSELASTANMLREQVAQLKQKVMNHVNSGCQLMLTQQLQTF
Assay [7] has as its target T5, Transcription factor Jun. Kind of assay: Inhibition of AP-1-mediated transcriptional activation in HEK293 cells by luciferase reporter gene assay. The assay is classed as cell-based. A general note: A reporter such as luciferase makes a cellular process visible.
A further assay has as its system Rattus norvegicus. As to the kind of experiment: Antiinflammatory activity in carrageenan injection-induced rat inflammation model assessed as inhibition of rat paw edema. The assay is classed as functional.
The next assay is filed under the species Gallus gallus. As to the kind of experiment: Antiangiogenic activity in chicken embryo assessed as inhibition of neovascularization at 10 ug. The assay is classed as functional.

The term EC50 denotes the concentration needed to bring the measured effect to its halfway point. For `CC1=C(/C=C/C(=C/C=C/C(C)=C/C(=O)O)c2ccc(C)cc2)C(C)(C)CCC1`, the 50% effective concentration (EC50) in [1], in [2], in assay [3] and in assay [4] was over 1000 nM each time.
A word on the IC50: it is the concentration that inhibits the measured activity by half. As to `CCCc1c(C(=O)O)c(O)cc2c1C(=O)c1c(O)cccc1C2=O`, the results for the concentration for half-maximal inhibition (IC50) at Transcription factor Jun [5] and against Transcription factor Jun [6] were 100000 nM and 60000 nM, respectively.
In turn, `CNc1nc(-c2ccccc2)c(-c2nc3ccccc3c(=O)n2-c2ccccc2OC)s1` showed an IC50 on Transcription factor Jun [7] of 500 nM. Moreover, in the assay with Rattus norvegicus, the “inhibition (INH)” value was 56%.
On to `COc1cc(/C=C/C(=O)/C=C(O)/C=C/c2cc(OC)c(O)c([N+](=O)[O-])c2)cc([N+](=O)[O-])c1O`, for which the “inhibition (INH)” value in the assay listed under Gallus gallus was 68%.
